Measurements as given in PMC6764326, “The Trials and Tribulations of Structure Assisted Design of KCa Channel Activators” (Frontiers in Pharmacology, 2019).

Columns and labels:
KCa2.2 = target: T1, KCa2.2 (Homo sapiens, UniProt P0DP23+Q9H2S1); assay: QPatch automated whole-cell patch-clamp screen, 10 µM activator normalized to 10 µM SKA-31; format: cell-based; settings: 250 nM free internal Ca2+, HEK cells stably expressing channel
T1 construct: expressed in transfected cells
Experimental: (§1) All experiments were performed in either the inside-out or the whole-cell configuration of the patch-clamp technique on either transiently transfected CHO cells or Human Embryonic Kidney (HEK) cell lines stably expressing hKCa3.1 or hKCa2.2 ([Sankaranarayanan et al., 2009]). All cells were cultured in Dulbecco’s modified Eagle’s medium supplemented with 10% fetal calf serum. Wild-type (WT) and mutant hKCa3.1 channel constructs were transfected using FuGENE 6 transfection reagent (Promega, Madison, WI) in OptiMEM reduced-serum medium (Life Technologies, Benicia, CA) for manual patch-clamp experiments or via electroporation (Nucleofector 2b and Lonza Amaxa Cell Line Nucleofector Kit T) according to the manufacturer’s instructions for automated electrophysiology.
(§2) The procedure for performing automated whole-cell KCa channel recordings on a QPatch-16 automated electrophysiology platform (Sophion Biosciences) was previously described in detail by our laboratory ([Jenkins et al., 2013]). For the current study we used the solutions described above with disposable 16-channel planar patch chip plates (QPlates; patch hole diameter […], resistance 2.00–0.02MΩ, Sophion Biosciences, Woburn, MA). Cell positioning and sealing parameters were set as follows: positioning pressure -70 mbar, resistance increase for success 750%, minimum seal resistance 0.1 GΩ, holding potential -0 mV, holding pressure -20 mbar. To avoid rejection of cells with large KCa3.1 currents, the minimum seal resistance for whole-cell requirement was lowered to 0.001 GΩ. Access was obtained with the following sequence: 1) suction pulses in 29 mbar increments from -250 mbar to -453 mbar; 2) a suction ramp of an amplitude of -450 mbar; 3) -400 mV voltage zaps of 1 ms duration. Following establishment of the whole-cell configuration, cells were held at -80 mV and KCa currents elicited by a voltage protocol that held at -80 mV for 20 ms, stepped to -120 mV for 20 ms, ramped from -120 to + 40 mV in 200 ms, and then stepped back to -120 mV for 20 ms. This pulse protocol was applied every 10 s. KCa activator dilutions were prepared freshly (within 5 min of the initiation of the QPatch) with Ringer’s solution from 10 mM stock solutions in dry DMSO. Final DMSO concentrations never exceeded 1%. Glass vial inserts (to avoid adsorption) were filled with 400 µL of compound solution and placed into the insert base plate for use in the QPatch assay. Exemplary QPatch raw current traces and plots of slope conductance versus time are shown in Supplementary Figure 3 . For each compound we typically used 12 consecutive liquid periods Break-in, 3 saline additions to stabilize the current, 2 additions of test compound at 10 µM, 2 saline washes, 2 additions of SKA-31 at 10 µM, followed by 2 more saline washes. In each liquid period 10 pulse protocols were run.
(§3) The newly synthesized compounds were tested by automated whole-cell patch-clamp for their ability to activate KCa2.2 and KCa3.1 channels stably expressed in HEK cells. […] A promising compound would ideally do both. […] We started by comparing the effect of the SKA-74 derivatives to SKA-31 ( Figure 4A ).
(§4) Figure 4 Whole-cell KCa3.1 and KCa2.2 responses elicited by 10 µM of activator and normalized to 10 µM of the mixed activator SKA-31. Experiments were performed by automated electrophysiology with 250 nM of free internal Ca^2+. In each experiment the new activator was tested first, washed out with 2 saline additions, and then SKA-31 was applied as positive control for normalization of the response. (A) Screening of SKA-74 derivatives. (B) Screening of SKA-75 and SKA-76 derivatives. The bar graphs show means ± SD of the slope conductance measured between −85 and −65 mV (n = 2–7 cells). Chemical structures are shown below the bar graphs.
(§5) Figure 5 Whole-cell KCa3.1 and KCa2.2 responses elicited by 10 µM of activator and normalized to 10 µM of the mixed activator SKA-31. […]

KCa3.1 = target: T2, KCa3.1 (Homo sapiens, UniProt O15554+P0DP23); assay: as above; format: cell-based; settings: for Whole-cell KCa3.1 response elicited by 10 µM of activator normalized to 10 µM SKA-31 (described in words): 250 nM free internal Ca2+, HEK cells stably expressing channel
T2 construct: expressed in transfected cells
Experimental: as §1, §2, §3, §4, §5

[1] = set-up: method as in Coleman et al., 2014; settings: ref Coleman et al., 2014, cited from earlier work; for KCa2 channel mediated side effects on CNS and heart rate: mice; for Blood pressure lowering: normotensive and hypertensive mice
[2] = tested on: KCa3.1 over KCa2 channels; settings: second generation activators; ref Coleman et al., 2014; cited from earlier work

Row | SMILES | Whole-cell KCa2.2 response elicited by 10 µM of activator normalized to 10 µM SKA-31 (described in words) (KCa2.2) | Whole-cell KCa3.1 response elicited by 10 µM of activator normalized to 10 µM SKA-31 (described in words) (KCa3.1) | melting point | KCa2 channel mediated side effects on CNS and heart rate [1] | Blood pressure lowering [1] | Selectivity between KCa3.1 and KCa2.2 in the 10 µM screen (KCa3.1; KCa3.1 versus KCa2.2, 250 nM free Ca2+) | Selectivity for KCa3.1 [2]
1 | c1ccc(Nc2nc(-c3cccc4ccccc34)cs2)nc1 [SKA-258, 4-(Naphthalen-1-yl)-N-(pyridin-2-yl)thiazol-2-amine] | completely abolished activity | completely abolished activity | 225 °C |  |  |  | 
2 | Cc1cc2sc(N)nc2c2ccccc12 [SKA-111, 5-methylnaphtho[1,2-d]thiazol-2-amine] |  |  |  | avoiding KCa2 channel mediated side effects on the CNS and on heart rate | efficacious in lowering blood pressure |  | 
3 | Cc1ccc(-c2csc(Nc3cccc(C(F)(F)F)c3)n2)cc1 [SKA-260, 4-(p-Tolyl)-N-(3-(trifluoromethyl)phenyl)thiazol-2-amine] | completely devoid of activity | completely devoid of activity | 108 °C |  |  |  | 
4 | FC(F)(F)c1cccc(Nc2nc(-c3cccc4ccccc34)cs2)c1 [SKA-251, 4-(Naphthalen-1-yl)-N-(3-(trifluoromethyl)phenyl)thiazol-2-amine] | completely abolished activity | completely abolished activity | 135 °C |  |  |  | 
5 | c1ccc(Nc2nc3c(ccc4ccccc43)s2)cc1 [SKA-146, N-Phenylnaphtho[1,2-d]thiazol-2-amine] | less potent than SKA-31 | less potent than SKA-31 | 140 to 141 °C |  |  |  | 
6 | Nc1nc(-c2ccc(-c3csc(N)n3)cc2)cs1 [SKA-230, 4,4'-(1,4-Phenylene)bis(thiazol-2-amine)] | completely devoid of activity | completely devoid of activity | 350 °C |  |  |  | 
7 | Cc1nc2c(cc(Br)c3ccccc32)o1 [SKA-133, 5-Bromo-2-methylnaphtho[1,2-d]oxazole] | decreased activity |  | 101 to 102 °C |  |  | preserved selectivity for KCa3.1 | 
8 | Cc1nc2c(ccc3c([N+](=O)[O-])cccc32)s1 [SKA-215, 2-Methyl-6-nitronaphtho[1,2-d]thiazole] | inactive | inactive | 178 to 179 °C |  |  |  | 
9 | Cc1ccc2cccc(-c3csc(N)n3)c2c1 [SKA-193, 4-(7-Methylnaphthalen-1-yl)thiazol-2-amine] | somewhat increased KCa channel activating potency | somewhat increased KCa channel activating potency | 154 to 156 °C |  |  |  | 
10 | CCN(CC)c1cc2sc(N)nc2c2ccccc12 [SKA-330, N^5,N^5-Diethylnaphtho[1,2-d]thiazole-2,5-diamine] | somewhat reduced potency | somewhat reduced potency | 119 to 121 °C |  |  |  | 
11 | Cc1ccc2cc(-c3csc(N)n3)ccc2c1 [SKA-198, 4-(6-Methylnaphthalen-2-yl)thiazol-2-amine] | somewhat increased KCa channel activating potency | somewhat increased KCa channel activating potency | 178 to 179 °C |  |  |  | 
12 | Nc1nc2c(cc([N+](=O)[O-])c3ccccc32)s1 [SKA-321, 5-Nitronaphtho[1,2-d]thiazol-2-amine] | drastically reduced potency | drastically reduced potency | 289 to 291 °C |  |  |  | 
13 | Cc1cc2nc(N)oc2c2ccccc12 [SKA-121, 5-methylnaphtho[2,1-d]oxazol-2-amine] |  |  |  | avoiding KCa2 channel mediated side effects on the CNS and on heart rate | efficacious in lowering blood pressure |  | 40–100 fold
14 | FC(F)(F)c1ccc(Nc2nc(-c3ccccc3)cs2)cc1 [SKA-268, 4-Phenyl-N-(4-(trifluoromethyl)phenyl)thiazol-2-amine] | completely devoid of activity | completely devoid of activity | 153 °C |  |  |  | 
15 | CNc1nc2c(ccc3ccccc32)s1 [SKA-158, N-Methylnaphtho[1,2-d]thiazol-2-amine] | abolished activity on KCa2.2 | preserved it again on KCa3.1 | 187 to 188 °C |  |  |  | 
